Assays:
[1] = target: T1, OTC (ornithine transcarbamylase) (Enterococcus faecalis, UniProt Q839Q5); assay: citrulline production, approach to equilibrium; turnover only; type: biochemical; details: 10 mM ornithine, 10 mM carbamylphosphate, 0.1 M Tris-HCl pH 8.5, 37°C
T1 construct: gene arcB
T1 sequence (Q839Q5 1-339): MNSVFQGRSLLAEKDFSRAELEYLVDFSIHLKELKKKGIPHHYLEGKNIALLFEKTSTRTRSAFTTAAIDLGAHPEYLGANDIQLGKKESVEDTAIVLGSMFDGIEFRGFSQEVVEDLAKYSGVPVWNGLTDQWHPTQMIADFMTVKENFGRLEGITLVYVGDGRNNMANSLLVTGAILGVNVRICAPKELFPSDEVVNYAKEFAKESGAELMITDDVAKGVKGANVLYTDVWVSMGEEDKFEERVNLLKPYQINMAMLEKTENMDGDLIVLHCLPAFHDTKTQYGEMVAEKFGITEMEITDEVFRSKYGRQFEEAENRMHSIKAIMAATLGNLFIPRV

[2] = target: T2, truncated PTC (PTC lacking the C-terminal helix 13) (Enterococcus faecalis, UniProt Q837U7); assay: X-ray crystal structure, […] Å; type: binding; details: bisubstrate analogue in active site; pH 7.5
T2 construct: gene ptcA
T2 sequence (Q837U7 1-317): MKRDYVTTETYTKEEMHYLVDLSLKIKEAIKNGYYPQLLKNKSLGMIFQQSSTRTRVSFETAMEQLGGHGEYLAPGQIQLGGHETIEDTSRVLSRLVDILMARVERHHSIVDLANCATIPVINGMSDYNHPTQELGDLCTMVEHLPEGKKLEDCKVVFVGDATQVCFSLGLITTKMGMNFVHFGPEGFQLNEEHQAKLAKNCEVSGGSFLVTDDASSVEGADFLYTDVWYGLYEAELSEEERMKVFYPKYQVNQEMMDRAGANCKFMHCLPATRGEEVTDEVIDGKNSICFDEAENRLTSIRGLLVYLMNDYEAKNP

[3] = target: T3, PTC (putrescine transcarbamylase) (Enterococcus faecalis, UniProt Q837U7); assay: X-ray crystal structure, […] Å; type: binding; details: bisubstrate analogue in active site; pH 5.5
T3 construct: gene ptcA
T3 sequence (Q837U7 whole entry): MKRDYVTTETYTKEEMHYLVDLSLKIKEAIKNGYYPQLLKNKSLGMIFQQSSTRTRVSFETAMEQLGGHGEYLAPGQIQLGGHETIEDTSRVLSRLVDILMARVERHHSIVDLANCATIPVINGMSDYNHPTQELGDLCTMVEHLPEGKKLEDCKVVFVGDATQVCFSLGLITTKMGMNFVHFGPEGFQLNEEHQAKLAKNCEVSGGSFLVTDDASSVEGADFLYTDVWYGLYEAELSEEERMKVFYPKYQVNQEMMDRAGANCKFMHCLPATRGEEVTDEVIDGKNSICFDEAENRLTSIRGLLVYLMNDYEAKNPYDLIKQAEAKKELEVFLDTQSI

[4] = target: T3, PTC (putrescine transcarbamylase); assay: X-ray crystal structure, […] Å; type: binding; details: bisubstrate analogue in active site; pH 5.5; remark: listed apart in the source
[5] = target: T3, PTC (putrescine transcarbamylase); assay: inhibition of transcarbamylase activity, PAPU titration; type: biochemical; details: putrescine or ornithine as substrate (one common curve); bisubstrate analogue inhibitor

## NCCC[C@H](N)C(=O)O [L-ornithine]
[1]
  citrulline production, approach to equilibrium; turnover only: carbamylation of ornithine (open symbols) using either OTC (squares) or PTC (triangles)

## N[C@@H](CCCNC(=O)CP(=O)(O)O)C(=O)O [PALO, δ-N-(phosphonoacetyl)-L-ornithine]
[2]
  X-ray crystal structure, 1.59 Å: 4A8H, 4A8P and 4A8T for PTC-PAPU, PTC-PALO and truncated PTC-PALO, respectively
[3]
  X-ray crystal structure, 2.0 Å: 4A8H, 4A8P and 4A8T for PTC-PAPU, PTC-PALO and truncated PTC-PALO, respectively

## NCCCCNC(=O)CP(=O)(O)O [PAPU, N-(phosphonoacetyl)-putrescine]
[4]
  X-ray crystal structure, 2.5 Å: 4A8H, 4A8P and 4A8T for PTC-PAPU, PTC-PALO and truncated PTC-PALO, respectively
[5]
  % activity: PAPU inhibited similarly the activities of PTC with putrescine and with ornithine

From paper PMC3282769 (PLoS ONE, 2012)
